This is an account of results in patent publication US20230024108A1, “ADENOSINE A2A RECEPTOR ANTAGONISTS” (Teon Therapeutics, Inc., priority 2019, published 2023).

Experiment [1] concerns the target T1, A1AdoR (Homo sapiens, UniProt P30542).
T1 construct: purchased PerkinElmer ES-010-M400UA
T1 sequence (P30542 1-326): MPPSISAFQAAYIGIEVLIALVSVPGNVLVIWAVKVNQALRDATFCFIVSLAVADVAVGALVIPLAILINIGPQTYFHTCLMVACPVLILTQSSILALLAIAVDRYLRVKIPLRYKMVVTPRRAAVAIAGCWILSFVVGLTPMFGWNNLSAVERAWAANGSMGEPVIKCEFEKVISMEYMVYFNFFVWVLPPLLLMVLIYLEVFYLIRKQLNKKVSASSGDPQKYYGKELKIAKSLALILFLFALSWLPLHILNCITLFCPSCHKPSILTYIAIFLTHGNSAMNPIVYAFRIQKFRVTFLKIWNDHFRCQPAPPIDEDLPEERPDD
The experiment in a line: Adenosine receptor binding assay, A1 ([3H]-DPCPX). The conditions noted are these: ratio A1 vs A2A binding. As to the method: (§1) Membranes prepared from CHO-K1 cells stably expressing Human AiAdoR (ES-010-M400UA), HEK-293 cells stably expressing human A2A AdoR (RBHA2AM400UA), HEK-293 cells stably expressing human A2B AdoR (ES-013-M400UA) and CHO-K1 cells stably expressing Human A3 AdoR (ES-012-M400UA) were purchased from PerkinElmer (Waltham, Mass., USA) and stored at −80° C. until use. Binding assays are performed using the radioligands. The final concentrations are as follows: [3H]-DPCPX (PerkinElmer, NET974001MC) at 1 nM for A1AdoR; [^3H]-CGS-21680 (PerkinElmer, NET1021250UC) at 6 nM for A2AAdoR, [3H]-DPCPX (PerkinElmer, NET974001MC) at 8 nM for A2BAdoR; [^3H]-HEMADO (ARC, Cat: ART1456) at 1 nM for A3AdoR. Testing compounds are diluted with DMSO to make 8-point 4-fold serial dilution. Nonspecific binding (Low control: LC) and total binding (High control: HC) are determined in the presence or absence of saturated cold ligand. Specific binding is calculated by subtracting nonspecific binding from total binding. All assays are performed in a final volume of 200 μl containing 1 μl of the test compound in DMSO, 100 μl of membrane preparation, and 99 μl of the radioligand in assay buffer (A1AdoR: 25 mM HEPES pH 7.4, 5 mM MgCl2, 1 mM CaCl2), 100 mM NaCl; A2AAdoR: 50 mM Tris HCl pH 7.4, 10 mM MgCl2, 1 mM EDTA; A2BAdoR: 50 mM HEPES pH 7.0, 5 mM MgCl2, 1 mM EDTA; A3AdoR: 25 HEPES pH 7.4, 10 mM MgCl2, 1 mM CaCl2), 0.5% BSA). The incubation is performed at room temperature with shaking at 300 rpm for 1 hour for A1AdoR, A2BAdoR and A3AdoR and 2 hours for A2AAdoR. After the incubation, the assay mixture is filtered through 96 GF/C filter plates (Perkin Elmer #6005174) using Perkin Elmer Filtermate Harvester, and then washed four times with ice-cold washing buffer (A1AdoR: 25 mM HEPES pH 7.4, 5 mM MgCl2, 1 mM CaCl2), 100 mM NaCl; A2AAdoR: 50 mM Tris HCl pH 7.4, 154 mM NaCl; A2BAdoR: 50 mM HEPES pH 6.5, 5 mM MgCl2, 1 mM EDTA, 0.2% BSA; A3AdoR: 50 mM Tris HCl pH 7.4). The filters are dried for 1 hour at 50° C. and [^3H] trapped on filter counted for radioactivity in Perkin Elmer Microscint 20 cocktail (#6013329) using Perkin Elmer MicroBeta2 Reader. The results are expressed as a percent inhibition of the control radioligand specific binding calculated using the following equation: % Inhibition=(1−(Assay well-Average_LC)/(Average_HC−Average_LC))×100%. Data are analyzed and IC50 is calculated using GraphPad Prism 5 and the model “log(inhibitor) vs. response—Variable slope”. The binding affinity of the compounds is determined by using the Cheng and Prusoff equation Ki=IC50/(1+[radioligand]/Kd).

Experiment [2] addresses T2, human A2A AdoR (Homo sapiens, UniProt P29274).
T2 construct: purchased PerkinElmer RBHA2AM400UA
Briefly: Adenosine receptor binding assay, A2A ([3H]-CGS-21680). The conditions noted are these: membranes of HEK-293 cells expressing human A2A AdoR; read-out: hA2A IC50. The method, then: as §1

T2 sequence (P29274 whole entry): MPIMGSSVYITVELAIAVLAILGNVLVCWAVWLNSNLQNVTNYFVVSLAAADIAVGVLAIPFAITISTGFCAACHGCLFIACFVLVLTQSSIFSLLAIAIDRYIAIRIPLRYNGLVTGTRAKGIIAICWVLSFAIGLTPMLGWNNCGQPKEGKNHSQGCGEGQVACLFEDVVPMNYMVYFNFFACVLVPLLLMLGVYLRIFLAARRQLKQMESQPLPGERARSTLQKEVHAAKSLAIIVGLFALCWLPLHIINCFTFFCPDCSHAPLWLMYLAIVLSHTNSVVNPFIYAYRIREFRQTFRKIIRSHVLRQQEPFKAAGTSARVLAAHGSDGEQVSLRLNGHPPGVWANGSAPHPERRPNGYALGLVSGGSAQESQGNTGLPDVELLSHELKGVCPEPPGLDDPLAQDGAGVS

One may read the IC50 as the concentration at which inhibition is half-maximal. On to `CC#Cc1nc2c3ncn(CCN4CCN(c5cc6c(C)noc6cc5F)CC4)c3nc(N)n2n1` [3-(2-(4-(6-fluoro-3-methylbenzo[d]isoxazol-5-yl)piperazin-1-yl)ethyl)-8-(prop-1-yn-1-yl)-3H-[1,2,4]triazolo[5,1-i]purin-5-amine], for which the “A1/A2A Selectivity” value in experiment [1] is recorded as “a (greater than 1000)”. For the same compound, in experiment [2], the 50% inhibitory concentration (IC50) was no more than 20 nM.
With `Nc1nc2c(c(Cl)c(C(=O)O)n2CCN2CCN(c3ncccn3)CC2)c2nc(-c3ccccn3)nn12` [5-amino-9-chloro-2-(pyridin-2-yl)-7-(2-(4-(pyrimidin-2-yl)piperazin-1-yl)ethyl)-7H-pyrrolo[3,2-e][1,2,4]triazolo[1,5-c]pyrimidine-8-carboxylic acid], the “A1/A2A Selectivity” value in experiment [1] was “c (greater than 0 but less than or equal to 100)”. Also, the IC50 in experiment [2] lay in the range of 20 to 100 nM.
For `CC#Cc1nc2c3ncn(CCN4CCN(c5cc(-n6cccn6)ccc5F)CC4)c3nc(N)n2n1`, the “A1/A2A Selectivity” value in experiment [1] is “a (greater than 1000)”. Moreover, the IC50 in experiment [2] is no more than 20 nM.
For `CC#Cc1nc2c3ncn(CCN4CCc5ncc(-c6nccs6)cc5C4)c3nc(N)n2n1` the same measures were “c (greater than 0 but less than or equal to 100)” and no more than 20 nM.
Turning to `Cc1c(C(=O)O)n(CCN2CCN(c3ccc(C#N)cc3F)CC2)c2nc(N)n3nc(-c4ccccn4)nc3c12` [5-amino-7-(2-(4-(4-cyano-2-fluorophenyl)piperazin-1-yl)ethyl)-9-methyl-2-(pyridin-2-yl)-7H-pyrrolo[3,2-e][1,2,4]triazolo[1,5-c]pyrimidine-8-carboxylic acid], in experiment [1], the “A1/A2A Selectivity” value is listed as “b (greater than 100 but less than or equal to 1000)”. Also, in experiment [2], the IC50 is no more than 20 nM.
For `Cc1cc(N2CCN(CCn3c(C(N)=O)c(C)c4c3nc(N)n3nc(-c5ccccn5)nc43)CC2)c(F)cn1` [5-amino-7-(2-(4-(5-fluoro-2-methylpyridin-4-yl)piperazin-1-yl)ethyl)-9-methyl-2-(pyridin-2-yl)-7H-pyrrolo[3,2-e][1,2,4]triazolo[1,5-c]pyrimidine-8-carboxamide] the same measures were “c (greater than 0 but less than or equal to 100)” and no more than 20 nM.
As for `CC#Cc1nc2c3cc(C#N)n(CCN4CCN(c5ccc6onc(C)c6c5F)CC4)c3nc(N)n2n1`, in experiment [1], the “A1/A2A Selectivity” value is listed as “a (greater than 1000)”. For the same compound, the IC50 in experiment [2] is no more than 20 nM.
Regarding `NC(=O)c1c(Cl)c2c(nc(N)n3nc(-c4ccccn4)nc23)n1CCN1CCN(c2ccncc2)CC1` [5-amino-9-chloro-2-(pyridin-2-yl)-7-(2-(4-(pyridin-4-yl)piperazin-1-yl)ethyl)-7H-pyrrolo[3,2-e][1,2,4]triazolo[1,5-c]pyrimidine-8-carboxamide], in experiment [1], the “A1/A2A Selectivity” value is recorded as “c (greater than 0 but less than or equal to 100)”. The IC50 in experiment [2] is no more than 20 nM.
Take `Nc1nc2c(ncn2CCN2CCN(c3cc(-c4ncco4)ccc3F)CC2)c2nc(-c3ccccn3)nn12` [3-(2-(4-(2-fluoro-5-(oxazol-2-yl)phenyl)piperazin-1-yl)ethyl)-8-(pyridin-2-yl)-3H-[1,2,4]triazolo[5,1-i]purin-5-amine]: the “A1/A2A Selectivity” value in experiment [1] is on record as “b (greater than 100 but less than or equal to 1000)”. Besides, the IC50 in experiment [2] was no more than 20 nM.
Consider `NC(=O)c1c(Cl)c2c(nc(N)n3nc(-c4ccccn4)nc23)n1CCN1CCN(c2ccc(F)cc2F)CC1`, for which the “A1/A2A Selectivity” value in experiment [1] is reported as “c (greater than 0 but less than or equal to 100)”. Further, the half-maximal inhibitory concentration (IC50) in experiment [2] is no more than 20 nM.
As for `Cc1cc(N2CCN(CCn3c(C(N)=O)c(Cl)c4c3nc(N)n3nc(-c5ccccn5)nc43)CC2)c(F)cn1` [5-amino-9-chloro-7-(2-(4-(5-fluoro-2-methylpyridin-4-yl)piperazin-1-yl)ethyl)-2-(pyridin-2-yl)-7H-pyrrolo[3,2-e][1,2,4]triazolo[1,5-c]pyrimidine-8-carboxamide], the “A1/A2A Selectivity” value in experiment [1] is on record as “c (greater than 0 but less than or equal to 100)”. In experiment [2], the 50% inhibitory concentration (IC50) is no more than 20 nM.
For `Cc1noc2cc(F)c(N3CCN(CCn4c(C(N)=O)c(C)c5c4nc(N)n4nc(-c6ccccn6)nc54)CC3)cc12` [5-amino-7-(2-(4-(6-fluoro-3-methylbenzo[d]isoxazol-5-yl)piperazin-1-yl)ethyl)-9-methyl-2-(pyridin-2-yl)-7H-pyrrolo[3,2-e][1,2,4]triazolo[1,5-c]pyrimidine-8-carboxamide], in experiment [1], the “A1/A2A Selectivity” value is on record as “a (greater than 1000)”. Further, in experiment [2], the IC50 is no more than 20 nM.
Taken in the same sequence, the figures for `Cc1cn(CCN2CCCN(c3cc(-c4ncco4)ccc3F)CC2)c2nc(N)n3nc(-c4ccccn4)nc3c12` [7-(2-(4-(2-fluoro-5-(oxazol-2-yl)phenyl)-1,4-diazepan-1-yl)ethyl)-9-methyl-2-(pyridin-2-yl)-7H-pyrrolo[3,2-e][1,2,4]triazolo[1,5-c]pyrimidin-5-amine] were “c (greater than 0 but less than or equal to 100)” and no more than 20 nM.
Take `Nc1nc2c(c(Cl)c(C(=O)O)n2CCN2CCN(c3cc(-c4ncco4)ccc3F)CC2)c2nc(-c3ccccn3)nn12` [5-amino-9-chloro-7-(2-(4-(2-fluoro-5-(oxazol-2-yl)phenyl)piperazin-1-yl)ethyl)-2-(pyridin-2-yl)-7H-pyrrolo[3,2-e][1,2,4]triazolo[1,5-c]pyrimidine-8-carboxylic acid]: the “A1/A2A Selectivity” value in experiment [1] is “b (greater than 100 but less than or equal to 1000)”. Further, the IC50 in experiment [2] was no more than 20 nM.
In the case of `Cc1cnc2c(c1)CN(CCn1c(C(N)=O)c(Cl)c3c1nc(N)n1nc(-c4ccccn4)nc31)CC2` [5-amino-9-chloro-7-(2-(3-methyl-7,8-dihydro-1,6-naphthyridin-6(5H)-yl)ethyl)-2-(pyridin-2-yl)-7H-pyrrolo[3,2-e][1,2,4]triazolo[1,5-c]pyrimidine-8-carboxamide], in experiment [1], the “A1/A2A Selectivity” value is recorded as “c (greater than 0 but less than or equal to 100)”. Besides, in experiment [2], the IC50 is no more than 20 nM.
For `Nc1nc2c(c(Cl)c(C(=O)O)n2CCN2CCN(c3ccc(F)cc3F)CC2)c2nc(-c3ccccn3)nn12` [5-amino-9-chloro-7-(2-(4-(2,4-difluorophenyl)piperazin-1-yl)ethyl)-2-(pyridin-2-yl)-7H-pyrrolo[3,2-e][1,2,4]triazolo[1,5-c]pyrimidine-8-carboxylic acid] the same measures were “b (greater than 100 but less than or equal to 1000)” and no more than 20 nM.
Taken in the same sequence, the figures for “2-(4-(4-(2-(5-amino-8-(methoxycarbonyl)-9-methyl-2-(pyridin-2-yl)-7H-pyrrolo[3,2-e][1,2,4]triazolo[1,5-c]pyrimidin-7-yl)ethyl)piperazin-1-yl)phenoxy)acetic acid” were “b (greater than 100 but less than or equal to 1000)” and no more than 20 nM.
Turning to `Cc1noc2cc(F)c(N3CCCN(CCn4c(C(N)=O)c(Cl)c5c4nc(N)n4nc(-c6ccccn6)nc54)CC3)cc12`, the “A1/A2A Selectivity” value in experiment [1] was “b (greater than 100 but less than or equal to 1000)”. Also, the IC50 in experiment [2] is no more than 20 nM.
Take `CC(C)(Oc1ccc(N2CCN(CCn3cnc4c3nc(N)n3nc(-c5ccccn5)nc43)CC2)c(F)c1)C(=O)O` [2-(4-(4-(2-(5-amino-8-(pyridin-2-yl)-3H-[1,2,4]triazolo[5,1-i]purin-3-yl)ethyl)piperazin-1-yl)-3-fluorophenoxy)-2-methylpropanoic acid]: the “A1/A2A Selectivity” value in experiment [1] is given as “b (greater than 100 but less than or equal to 1000)”. Also, the IC50 in experiment [2] was no more than 20 nM.
